In US12473332B2, “Modified peptides and associated methods of use” (Advanced Technologies For Novel Therapeutics, LLC, priority 2019, dated 2025):
pIC50: −log10 of the molar value. Where no end group is shown, it is not given here.

Tests used:
AKT [1] = test: AKT activity in cultured neurons treated with PKA inhibitor or activator (AKT phosphorylation at Thr-308 and Ser-473); type: cell-based
Protocol: To evaluate the significance of the AKT-PKAc interaction, kinase inhibitors were employed. […] Thus, cultured neurons were treated with the selective PKA inhibitor, H-89, and the potent PKA activator, forskolin, and AKT activity was analyzed.

Neuroblastoma cells = conditions: literature; read-out: IC-50 on neuroblastoma cells; cited from earlier work
glioblastoma cells = conditions: literature; read-out: IC-50 on glioblastoma cells; cited from earlier work
[2] = trypan blue staining, live and dead cell count; type: cell-based; conditions: 12 to 72 hours
Description: Therefore, in addition to capturing live images, cells were stained with trypan blue at different time intervals following treatment with ZaTa and counted by a light microscope using a hemocytometer.

AKT [3] = biological target: AKT (Homo sapiens, UniProt P31749); test: in vitro AKT kinase assay with Ser-9 GSK-3 GST fusion protein substrate; PKAc peptide library screen; type: biochemical; conditions: Ser-9 GSK-3 GST substrate
AKT (Homo sapiens, UniProt P31749), sequence (P31749 whole entry, the tested form may be a part): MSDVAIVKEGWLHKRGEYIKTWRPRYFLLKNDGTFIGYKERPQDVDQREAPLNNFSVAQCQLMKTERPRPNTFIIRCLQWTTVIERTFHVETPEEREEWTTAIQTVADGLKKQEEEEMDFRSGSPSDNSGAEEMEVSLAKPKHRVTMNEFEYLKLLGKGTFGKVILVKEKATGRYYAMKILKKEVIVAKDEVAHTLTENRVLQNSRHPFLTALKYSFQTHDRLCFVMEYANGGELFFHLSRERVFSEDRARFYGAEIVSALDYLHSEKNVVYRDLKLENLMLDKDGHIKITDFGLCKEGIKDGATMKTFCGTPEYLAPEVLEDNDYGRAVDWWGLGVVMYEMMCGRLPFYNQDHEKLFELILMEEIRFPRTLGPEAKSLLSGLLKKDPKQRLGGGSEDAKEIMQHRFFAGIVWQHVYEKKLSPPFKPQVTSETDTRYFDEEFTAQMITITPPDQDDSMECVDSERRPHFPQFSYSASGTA

AKT1 = AKT1 (Homo sapiens, UniProt P31749); test: AKT1 in vitro kinase assay, γ-32P incorporation into Ser-21 GSK-3β substrate peptide; type: biochemical
AKT1, sequence (P31749 whole entry): as the sequence (P31749 whole entry, the tested form may be a part) above

| Compound | number of dead cells [2] | inhibitory effect on catalytic activity of AKT (AKT [3]) | further results |
| --- | --- | --- | --- |
| O=S(=O)(NCCNC/C=C/c1ccc(Br)cc1)c1cccc2cnccc12 [Peptide H-89, H-89] | – | – | activity of AKT (activation-dependent phosphorylation at Thr-308 and Ser-473) (AKT [1]): dose-dependent increase in the activity of AKT |
| Cn1nnc2c(C(N)=O)ncn2c1=O [Temodar] | – | – | pIC50 (Neuroblastoma cells): 3.22; pIC50 (glioblastoma cells): 2.99 to 3.38 |
| AKRVKGRDWTLCGTPEY [ZaTa^T8D] | a significant increase in the number of dead cells was not seen | – | – |
| AKRVKGRTWDLCGTPEY [ZaTa^T10D] | a significant increase in the number of dead cells was not seen | – | – |
| AKRVKGRTWTLCGRPEY [ZaTa^T14R] | a significant increase in the number of dead cells was observed | – | – |
| AKRVKGRTWTLCGTPER [ZaTa^Y17R] | a significant increase in the number of dead cells was observed | – | – |
| D-Q-Q-G-Y-I-Q-V-T-D-F-G-F-A-K (DQQGYIQVTDFGFAK; MISC_FEATURE - Peptide_SEQ ID NO:56) [Peptide 49] | – | significant inhibitory effects | – |
| G-F-A-K-R-V-K-G-R-T-W-T-L (GFAKRVKGRTWTL; MISC_FEATURE - Peptide_SEQ ID NO:59) [Peptide 52] | – | – | inhibition of AKT1 catalytic activity (AKT1): not able to inhibit AKT1 |
| G-V-L-I-Y-E-M-A-A-G-Y-P-P-F-F (GVLIYEMAAGYPPFF; MISC_FEATURE - Peptide_SEQ ID NO:70) [Peptide 63] | – | significant inhibitory effects | – |
| W-A-L-G-V-L-I-Y-E-M-A-A-G-Y (WALGVLIYEMAAGY; MISC_FEATURE - Peptide_SEQ ID NO:69) [Peptide 62] | – | significant inhibitory effects | – |
| Y-E-M-A-A-G-Y-P-P-F-F-A (YEMAAGYPPFFA; MISC_FEATURE - Peptide_SEQ ID NO:71) [Peptide 64] | – | significant inhibitory effects | – |
